Where two headings read alike, the source gives them in different places.
Experiment: Single oral dose human plasma pharmacokinetics of D, DA and DOH after Cogni.Q
Assay type: in vivo
Details: human, plasma
Text: Ten healthy male and 10 female subjects were recruited by public announcement in Amarillo, TX, from January 2013 to April 2013 (see Fig. 1 CONSORT diagram). The sample size for each gender was chosen without power calculation due to the lack of prior knowledge of PK parameter variance in humans. After receiving informed consent verbally and in writing, the health status of each candidate was confirmed by health questionnaire, plasma biochemistry (hepatic and renal functions), complete blood cell count (CBC), and a physical examination by a participating academic physician. Subjects with diabetes, or pregnant, perinatal and breastfeeding women were excluded. For the 48 hours preceding study visit until the final blood draw, all subjects were instructed to avoid taking any prescription or nonprescription drugs, vitamins, and herbal/dietary supplements. Each subject was compensated for participating in the study per TTUHSC IRB approved rate.
Eligible subjects arrived at our clinical facility at 0700 (7:00 am) on the test day after a fast beginning at 2200 (10:00 pm) the previous night. After a brief review of vital signs, the nurse placed an intravenous (IV) line with saline drip in one arm of each subject. A baseline pre-dose (hour 0) blood sample was drawn through the IV line; after that subjects swallowed four Cogni.Q vegicaps with 240 mL of water at hour 0 under direct supervision. Subjects stayed at the clinical facility in their room for the next 12 hours, returning at 24 and 48 hours. Blood was drawn at baseline (hour 0) and at 0.5, 1, 2, 3, 4, 6, 8, 12, 24 and 48 hours after dosing into Vacutainer Blood Collection Tube (Becton-Dickinson, Franklin Lakes, NJ. Product Number: 367874, Sodium heparin was used as anti-coagulant). Water was allowed as desired except for within the first hour after Cogni.Q consumption. All subjects received standardized meals at post-dose hours 4.5 and 9.5 but no food was allowed for at least the first 4 hours post-dose.
Plasma was prepared by centrifuging the heparinized blood at 1000 g for 15 minutes at room temperature. Urine samples (40mL) were collected within time spans of 0–4, 4–8, 8–12 and 12–24 hours (total volume of urine was recorded). All plasma and urine samples were put on dry ice immediately and then stored at -80°C freezer until analysis.
Plasma samples were extracted with a validated solid supported liquid extraction (SLE) method facilitated with a positive pressure manifold (Biotage, Charlotte, NC). Briefly, 100 μL of plasma sample was spiked with 5 μL of 10 ng/μL prednisolone (IS), diluted with 200 μL of LC-MS grade water, mixed and loaded onto ISOLUTE SLE+ 400 μL Array Well cartridges (Biotage, Charlotte, NC). A pulse of minimum positive pressure was applied to facilitate the samples absorption into the cartridges. After the samples were allowed to absorb for 5 min, the compounds were eluted with 2×500 μL tert-butyl methyl ether. The eluent was dried in a Speedvac and the resulting residue was reconstituted in 50 μL of methanol for UHPLC-MS/MS analysis.
Eight-point calibration curves were constructed for D, DA and DOH, at concentrations of 0.1, 0.5, 1, 5, 10, 20, 50 and 100 μg/L for D and DA, and at concentrations of 1, 5, 10, 50, 100, 200, 500 and 1000 μg/L for DOH, respectively. The linear range was 0.1–100 μg/L (0.3–300 nmol/L), 0.1–100 μg/L (0.3–300 nmol/L) and 1–1000 μg/L (4–4000 nmol/L) for D, DA and DOH, respectively. The inter- and intra-assay CV were lower than 6.5% and the accuracy was between 90–105%. Calibration curve was run for each batch of samples analyzed. The mean calibration curve correlation coefficient (r) for D, DA and DOH was 0.999, 0.999 and 0.998, respectively (data from 7–10 calibration curves). In addition, 70% of the plasma samples were extracted and analyzed twice, the data from two replicate analyses were nearly identical and combined for final data analyses and presentation. […]

CC1(C)Oc2cc3oc(=O)ccc3cc2C[C@@H]1O [DOH, decursinol]
half-life (oral, 4 Cogni.Q vegicaps, subject S9 (158 lb), read-out: Terminal t1/2, h (converted)): 7.7 h
Tmax (oral, 4 Cogni.Q vegicaps, subject S9 (158 lb), read-out: Tmax): 3 h
AUC(0-t) (oral, 4 Cogni.Q vegicaps, subject S10 (185 lb), read-out: AUC0-48h): 17400 nmol·h/L
Cmax (oral, 4 Cogni.Q vegicaps, subject S10 (185 lb), read-out: Cmax): 1610 nM
half-life (oral, 4 Cogni.Q vegicaps, subject S10 (185 lb), read-out: Terminal t1/2, h (converted)): 8.8 h
Tmax (oral, 4 Cogni.Q vegicaps, subject S10 (185 lb), read-out: Tmax): 2 h
AUC(0-t) (oral, 4 Cogni.Q vegicaps, subject S11 (178 lb), read-out: AUC0-48h): 37300 nmol·h/L
Cmax (oral, 4 Cogni.Q vegicaps, subject S11 (178 lb), read-out: Cmax): 3420 nM
half-life (oral, 4 Cogni.Q vegicaps, subject S11 (178 lb), read-out: Terminal t1/2, h (converted)): 5 h
Tmax (oral, 4 Cogni.Q vegicaps, subject S11 (178 lb), read-out: Tmax): 2 h
AUC(0-t) (oral, 4 Cogni.Q vegicaps, subject S12 (169 lb), read-out: AUC0-48h): 29100 nmol·h/L
Cmax (oral, 4 Cogni.Q vegicaps, subject S12 (169 lb), read-out: Cmax): 2590 nM
half-life (oral, 4 Cogni.Q vegicaps, subject S12 (169 lb), read-out: Terminal t1/2, h (converted)): 7.9 h
Tmax (oral, 4 Cogni.Q vegicaps, subject S12 (169 lb), read-out: Tmax): 4 h
AUC(0-t) (oral, 4 Cogni.Q vegicaps, subject S13 (192 lb), read-out: AUC0-48h): 26100 nmol·h/L
Cmax (oral, 4 Cogni.Q vegicaps, subject S13 (192 lb), read-out: Cmax): 2420 nM
half-life (oral, 4 Cogni.Q vegicaps, subject S13 (192 lb), read-out: Terminal t1/2, h (converted)): 6 h
Tmax (oral, 4 Cogni.Q vegicaps, subject S13 (192 lb), read-out: Tmax): 2 h
AUC(0-t) (oral, 4 Cogni.Q vegicaps, subject S14 (200 lb), read-out: AUC0-48h): 25700 nmol·h/L
Cmax (oral, 4 Cogni.Q vegicaps, subject S14 (200 lb), read-out: Cmax): 3340 nM
half-life (oral, 4 Cogni.Q vegicaps, subject S14 (200 lb), read-out: Terminal t1/2, h (converted)): 5.3 h
Tmax (oral, 4 Cogni.Q vegicaps, subject S14 (200 lb), read-out: Tmax): 2 h
AUC(0-t) (oral, 4 Cogni.Q vegicaps, subject S15 (177 lb), read-out: AUC0-48h): 26100 nmol·h/L
Cmax (oral, 4 Cogni.Q vegicaps, subject S15 (177 lb), read-out: Cmax): 4020 nM
half-life (oral, 4 Cogni.Q vegicaps, subject S15 (177 lb), read-out: Terminal t1/2, h (converted)): 4.5 h
Tmax (oral, 4 Cogni.Q vegicaps, subject S15 (177 lb), read-out: Tmax): 1 h
Tmax (oral, 4 Cogni.Q vegicaps, subject S16 (175 lb), read-out: Tmax): 2 h
AUC(0-t) (oral, 4 Cogni.Q vegicaps, subject S17 (147 lb), read-out: AUC0-48h): 46700 nmol·h/L
Cmax (oral, 4 Cogni.Q vegicaps, subject S17 (147 lb), read-out: Cmax): 3740 nM
half-life (oral, 4 Cogni.Q vegicaps, subject S17 (147 lb), read-out: Terminal t1/2, h (converted)): 10.2 h
Tmax (oral, 4 Cogni.Q vegicaps, subject S17 (147 lb), read-out: Tmax): 2 h
half-life (oral, 4 Cogni.Q vegicaps, subject S18 (180 lb), outlier, excluded from means, read-out: Terminal t1/2, h (converted)): 16 h
AUC(0-t) (oral, 4 Cogni.Q vegicaps, subject S18 (180 lb), read-out: AUC0-48h): 16500 nmol·h/L
Cmax (oral, 4 Cogni.Q vegicaps, subject S18 (180 lb), read-out: Cmax): 1160 nM
Tmax (oral, 4 Cogni.Q vegicaps, subject S18 (180 lb), read-out: Tmax): 3 h
AUC(0-t) (oral, 4 Cogni.Q vegicaps, subject S19 (130 lb), read-out: AUC0-48h): 21400 nmol·h/L
Cmax (oral, 4 Cogni.Q vegicaps, subject S19 (130 lb), read-out: Cmax): 2270 nM
half-life (oral, 4 Cogni.Q vegicaps, subject S19 (130 lb), read-out: Terminal t1/2, h (converted)): 6.6 h
Tmax (oral, 4 Cogni.Q vegicaps, subject S19 (130 lb), read-out: Tmax): 6 h
half-life (oral, subject S16 (175 lb), outlier, excluded from means, read-out: Terminal t1/2, h (converted)): 15 h
AUC(0-t) (oral, subject S16 (175 lb), read-out: AUC0-48h): 16300 nmol·h/L
Cmax (oral, subject S16 (175 lb), read-out: Cmax): 1800 nM
AUC(0-t) (oral, subject S20 (200 lb), read-out: AUC0-48h): 17900 nmol·h/L
Cmax (oral, subject S20 (200 lb), read-out: Cmax): 1330 nM
half-life (oral, subject S20 (200 lb), read-out: Terminal t1/2, h (converted)): 9.6 h
Tmax (oral, subject S20 (200 lb), read-out: Tmax): 2 h
AUC(0-t) (male, oral, 4 Cogni.Q vegicaps, Men n=10 (S1 Table), read-out: AUC0-48h, Mean): 22500 nmol·h/L
Cmax (male, oral, 4 Cogni.Q vegicaps, Men n=10 (S1 Table), read-out: Cmax, nM, Mean): 2350 nM
Tmax (male, oral, 4 Cogni.Q vegicaps, Men n=10 (S1 Table), read-out: Tmax, h, Mean): 2.4 h
half-life (male, oral, Men, outliers excluded (S1 Table), read-out: Terminal t1/2, h, Mean (converted)): 6.6 h
AUC(0-t) (male, po, Men N = 10, single oral dose Cogni.Q, read-out: AUC0–48h, h.nmol/L Mean (SD)): 22500 nmol·h/L
Cmax (male, po, Men N = 10, single oral dose Cogni.Q, read-out: Cmax, nmol/L, Mean (SD)): 2350 nM
Tmax (male, po, Men N = 10, single oral dose Cogni.Q, read-out: Tmax, h, Mean (SD)): 2.4 h
half-life (male, po, Men, outlier subjects excluded, single oral dose Cogni.Q, read-out: T1/2, h, terminal Mean (SD) (converted)): 6.6 h

From article PMC4335020, “Single Oral Dose Pharmacokinetics of Decursin and Decursinol Angelate in Healthy Adult Men and Women” (PLoS ONE, 2015)
